From PubChem BioAssay (NCI)
“And” between values parts separate entries of the source, which are not always exact repeats. Equal entries are not always repeated.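 Briefly, cells in 96-well plates were exposed to five compound concentrations for 48 h, and endpoints were estimated by linear interpolation. Abbreviation: GI50, concentration required for 50% inhibition of growth. TGI marks complete inhibition of growth.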

Experiments:
Test in all cases: NCI-60 cell line screen, 48 h
ACHN renal = test system: ACHN renal
HCT-15 colon = test system: HCT-15 colon
HOP-62 NSCLC = test system: HOP-62 NSCLC
IGROV1 ovarian = test system: IGROV1 ovarian
KM12 colon = test system: KM12 colon
RPMI-8226 leukemia = test system: RPMI-8226 leukemia
SF-539 CNS = test system: SF-539 CNS
UO-31 renal = test system: UO-31 renal

| Structure (SMILES) | TGI (ACHN renal) [µM] | TGI (HCT-15 colon) [µM] | TGI (HOP-62 NSCLC) [µM] | TGI (IGROV1 ovarian) [µM] | TGI (KM12 colon) [µM] | TGI (RPMI-8226 leukemia) [µM] | TGI (SF-539 CNS) [µM] | TGI (UO-31 renal) [µM] | GI50 (ACHN renal) [µM] | GI50 (HCT-15 colon) | GI50 (HOP-62 NSCLC) [µM] | GI50 (IGROV1 ovarian) [µM] | GI50 (KM12 colon) [µM] | GI50 (RPMI-8226 leukemia) [µM] | GI50 (SF-539 CNS) [µM] | GI50 (UO-31 renal) [µM] |
| --- | --- | --- | --- | --- | --- | --- | --- | --- | --- | --- | --- | --- | --- | --- | --- | --- |
| CC(=O)Nc1ccc(S(=O)(=O)N=S(C)C)cc1 | > 100 | > 100 | > 100 | > 100 | > 100 | > 100 | > 100 | > 100 | – | – | – | – | – | – | – | – |
| CN(C)Cc1ccc(NC(=O)c2cncc(C#Cc3cnc(N)c4ncccc34)c2)cc1F | 11.4 | 3.35 | 42.8 | 3.96 | 3.16 | 4.75 | 3.07 | 4.08 | 3.28 | 1.73 µM | 13.4 | 2.13 | 1.7 | 1.97 | 1.53 | 2.38 |
| O=C(Nc1cc(F)c(F)cc1C(=O)O)c1ccc(-n2ccnc2)nn1 | > 100 | > 100 | > 100 | > 100 | > 100 | > 100 | > 100 | > 100 | > 100 | > 100 µM | > 100 | > 100 | > 100 | > 100 | 34.4 | > 100 |
| Cc1nc2sc3c(N)ncnc3c2c(C)c1C | > 25 | > 25 | > 25 | > 25 | > 25 | > 25 | > 25 | > 25 | > 25 | > 25 µM | > 25 | > 25 | > 25 | > 25 | > 25 | > 25 |
| CCCc1nc(Cl)c(Cl)c(Cl)n1 | – | > 63.7 | > 83.4 | 50.4 | > 100 | 3.94 | 68.6 | 5.61 | – | – | – | – | – | – | – | – |
| COc1cc2ncnc(Nc3ccc(Oc4ccnc(C)c4)c(C)c3)c2cc1NC(=O)CC1CCSS1 (centres undefined) | 8.48 | 2.31 | 2.91 | > 50 | – | 3.31 | > 10.7 | 2.83 | 1.49 | 1.04 µM | 1.16 | 1.54 | – | 1.14 | 1.29 | 0.853 |
| CCCCCCCCCCCCN=C(N)c1ccc(N2CCN(c3ccc(C(N)=NCCCCCCCCCCCC)cc3)CC2)cc1 | > 50 | > 50 | 14.6 | – | 25.1 | – | – | > 50 | 20.7 | 35 µM | 6.96 | – | 11.7 | – | – | 22.6 |
| COc1ccc(C2C(C#N)=C(N)Oc3c2sc2c(Br)cccc32)cc1 (centres undefined) | 19.3 | 10.7 | 17.5 | 20.9 | 14 | 12.5 | – | 17.7 | 4.82 | 0.93 µM | 4.48 | 2.29 | 1.92 | 2.9 | – | 3.21 |
| Clc1ccc2c(c1)N(C1CCCN(Cc3ccccc3)C1)c1ccccc1S2 (centres undefined) | > 100 | > 100 | > 100 | – | > 100 | > 100 | 56.2 | > 100 | 7.22 | 4.12 µM | 22.3 | – | 4.73 | 3.91 | 4.61 | 3.12 |
| O=C(Nc1cc(Cl)cc(Cl)c1)c1cccc(NC2=C(Cl)C(=O)N(Cc3ccccc3)C2=O)c1 | > 100 | > 100 | > 100 | > 100 | > 100 | > 100 | – | > 100 | 31.9 | 24 µM | 37.4 | 41.1 | 31.5 | 2.31 | – | 16.9 |
| COc1cc2c3c(n(CCCNCCCNCCN)c(=O)c2cc1OC)-c1cc2c(cc1C3=O)OCO2 | 57.1 | > 100 | – | > 100 | > 100 | 49 | > 100 | > 100 | 18.7 | > 100 µM | – | 32.3 | 85 | 17.2 | 37.9 | > 100 |
| COCCc1n(Cc2ccc3ccccc3c2)c2ccccc2[n+]1Cc1ccc2ccccc2c1 | 2.99 | – | 2.73 | – | 1.64 | – | – | 2.88 | 1.61 | – | 1.26 | – | 0.415 | – | – | 1.48 |
| COc1ccc(S(=O)(=O)Nc2c(/C=C\c3cc(OC)c(OC)c(OC)c3)ccc(OC)c2O)cc1 | 70.7 | > 100 | > 100 | > 100 | > 100 | 22.4 | – | 62.4 | 0.0693 | 0.0366 µM | 0.0397 | 0.054 | 0.0355 | 0.0469 | – | 0.0619 |
| COc1ccc2c(c1)/C(=C\c1c(-c3cc(OC)ccc3OC)nc3sccn13)C(=O)N2 | 9.74 | 18.7 | 3.29 | 2.73 | 3.98 | – | – | 3.02 | 2.37 | 7.19 µM and 5.37 µM | 1.75 | 0.697 | 2 | 3.4 | – | 1.57 |
| CCN1C(=O)N(CC)C2C1NN=c1s/c(=C3\C(=O)N(C4CCCC4)c4ccccc43)c(=O)n12 (centres undefined) | > 100 | > 100 | 14.4 | > 100 | > 100 | 7.31 | 2.4 | – | 1.27 | 0.479 µM | 1.54 | 0.773 | 0.689 | 1.91 | 0.484 | – |
| CCOC(=O)c1c(C)nc2c(c1N)/C(=C/c1ccccn1)C(=O)N2Cc1ccccc1 | 1.76 | 2.63 | – | 3.47 | 2.85 | 3.22 | 1.77 | 1.37 | 0.906 | 1.07 µM | – | 1.2 | 1.15 | 1.21 | 0.882 | 0.691 |
| NCCCNc1nc2ccccc2c2c(=O)c3cccc(Cl)c3sc12 | 2.79 | 3.16 | – | – | – | – | 3.02 | 2.24 | 1.41 | 1.64 µM | – | – | – | – | 1.63 | 1.03 |
